# Results: patent publication US7589089B2, “Inhibitors for GlyT-1” (Hoffmann-La Roche Inc., priority 2006, dated 2009)
# Target: T1, mGlyT-1b (Mus musculus, UniProt P28571)
# T1 construct: host or cells: Flp-in-CHO
# T1 sequence (P28571 1-651 isoform P28571-2): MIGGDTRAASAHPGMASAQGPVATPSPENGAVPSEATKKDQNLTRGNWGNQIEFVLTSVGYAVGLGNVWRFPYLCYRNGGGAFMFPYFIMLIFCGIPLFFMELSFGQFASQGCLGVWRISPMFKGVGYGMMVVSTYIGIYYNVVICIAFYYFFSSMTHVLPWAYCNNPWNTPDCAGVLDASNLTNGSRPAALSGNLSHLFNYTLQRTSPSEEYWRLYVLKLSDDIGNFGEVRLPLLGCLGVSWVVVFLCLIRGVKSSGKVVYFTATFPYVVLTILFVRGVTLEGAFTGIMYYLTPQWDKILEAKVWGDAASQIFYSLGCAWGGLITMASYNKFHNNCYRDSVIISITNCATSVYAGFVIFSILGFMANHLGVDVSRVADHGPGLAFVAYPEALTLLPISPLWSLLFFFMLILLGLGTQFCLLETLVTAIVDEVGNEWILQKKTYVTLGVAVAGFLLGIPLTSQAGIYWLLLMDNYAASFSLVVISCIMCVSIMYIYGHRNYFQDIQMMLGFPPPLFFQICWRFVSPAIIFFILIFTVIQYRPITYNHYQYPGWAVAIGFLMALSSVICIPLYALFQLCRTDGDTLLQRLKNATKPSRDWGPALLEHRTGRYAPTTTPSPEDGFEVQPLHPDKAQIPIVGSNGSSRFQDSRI
# Assay: Glycine Uptake Inhibition Assay (mGlyT-1b)
# Assay type: cell-based
# Protocol: DMEM complete medium: Nutrient mixture F-12 (Gibco Life-technologies), fetal bovine serum (FBS) 5%, (Gibco life technologies), Penicillin/Streptomycin 1% (Gibco life technologies), Hygromycin 0.6 mg/ml (Gibco life technologies), Glutamine 1 mM Gibco life technologies)
# Uptake buffer (UB): 150 mM NaCl, 10 mM Hepes-Tris, pH 7.4, 1 mM CaCl2, 2.5 mM KCl, 2.5 mM MgSO4, 10 mM (+) D-glucose.
# Flp-in™-CHO (Invitrogen Cat n° R758-07) cells stably transfected with mGlyT1b cDNA.
# Glycine Uptake Inhibition Assay (mGlyT-1b)
# On day 1 mammalian cells, (Flp-in™-CHO), transfected with mGlyT-1b cDNA, were plated at the density of 40,000 cells/well in complete F-12 medium, without hygromycin in 96-well culture plates. On day 2, the medium was aspirated and the cells were washed twice with uptake buffer (UB). The cells were then incubated for 20 min at 22° C. with either (i) no potential competitor, (ii) 10 mM non-radioactive glycine, (iii) a concentration of a potential inhibitor. A range of concentrations of the potential inhibitor was used to generate data for calculating the concentration of inhibitor resulting in 50% of the effect (e.g. IC50, the concentration of the competitor inhibiting glycine uptake of 50%). A solution was then immediately added containing [^3H]-glycine 60 nM (11-16 Ci/mmol) and 25 μM non-radioactive glycine. The plates were incubated with gentle shaking and the reaction was stopped by aspiration of the mixture and washing (three times) with ice-cold UB. The cells were lysed with scintillation liquid, shaken 3 hours and the radioactivity in the cells was counted using a scintillation counter.
row,SMILES,IC50 [nM]
1,"COc1ccc(C(=O)N(CC(=O)Nc2ccc(Cl)c(Cl)c2)c2ccccc2F)cc1 [Example 21, N-[(3,4-Dichloro-phenylcarbamoyl)-methyl]-N-(2-fluoro-phenyl)-4-methoxy-benzamide]",315
2,"COc1ccc(C(=O)N(CC(=O)Nc2cccc(C(F)(F)F)c2)c2ccccc2)cc1 [Example 27, 4-Methoxy-N-phenyl-N-[(3-trifluoromethyl-phenylcarbamoyl)-methyl]-benzamide]",148
3,"COc1ccc(C(=O)N(CC(=O)Nc2cccc(Cl)c2)c2ccccc2)cc1 [Example 28, N-[(3-Chloro-phenylcarbamoyl)-methyl]-4-methoxy-N-phenyl-benzamide]",267
4,"N#Cc1cccc(C(=O)N(CC(=O)Nc2ccc(Cl)c(Cl)c2)c2ccccc2)c1 [Example 31, 3-Cyano-N-[(3,4-dichloro-phenylcarbamoyl)-methyl]-N-phenyl-benzamide]",350
5,"O=C(CN(C(=O)c1ccc(C(F)(F)F)nc1)c1ccccc1)Nc1ccc(Cl)c(Cl)c1 [Example 37, N-[(3,4-Dichloro-phenylcarbamoyl)-methyl]-N-phenyl-6-trifluoromethyl-nicotinamide]",154
6,"O=C(CN(C(=O)c1ccccc1F)c1ccccc1)Nc1ccc(Cl)c(Cl)c1 [Example 39, N-[(3,4-Dichloro-phenylcarbamoyl)-methyl]-2-fluoro-N-phenyl-benzamide]",291
7,"COc1ccc(C(=O)N(CC(=O)Nc2ccc(Cl)c(Cl)c2)c2ccccc2)cc1 [Example 41, N-[(3,4-Dichloro-phenylcarbamoyl)-methyl]-4-methoxy-N-phenyl-benzamide]",276
8,"N#Cc1ccc(C(=O)N(CC(=O)Nc2cccc(C(F)(F)F)c2)Cc2ccccc2Cl)cc1 [Example 43, N-(2-Chloro-benzyl)-4-cyano-N-[(3-trifluoromethyl-phenylcarbamoyl)-methyl]-benzamide]",339
9,"O=C(CN(Cc1ccccc1Cl)C(=O)c1cc2ccccc2s1)Nc1cccc(C(F)(F)F)c1 [Example 51, Benzo[b]thiophene-2-carboxylic acid (2-chloro-benzyl)-[(3-trifluoromethyl-phenylcarbamoyl)-methyl]-amide]",60
10,"O=C(CN(Cc1ccccc1Cl)C(=O)c1cccc(F)c1)Nc1cccc(C(F)(F)F)c1 [Example 52, N-(2-Chloro-benzyl)-3-fluoro-N-[(3-trifluoromethyl-phenylcarbamoyl)-methyl]-benzamide]",153
11,"O=C(CN(Cc1ccccc1Cl)C(=O)c1ccc(Cl)cc1)Nc1cccc(C(F)(F)F)c1 [Example 53, 4-Chloro-N-(2-chloro-benzyl)-N-[(3-trifluoromethyl-phenylcarbamoyl)-methyl]-benzamide]",241
12,"O=C(CN(Cc1ccccc1Cl)C(=O)c1ccc(OC(F)(F)F)cc1)Nc1cccc(C(F)(F)F)c1 [Example 54, #N!-(2-Chloro-benzyl)-4-trifluoromethoxy-#N!-[(3-trifluoromethyl-phenylcarbamoyl)-methyl]-benzamide]",196
13,"O=C(CN(Cc1ccccc1Cl)C(=O)c1ccc(F)cc1)Nc1cccc(C(F)(F)F)c1 [Example 55, N-(2-Chloro-benzyl)-4-fluoro-N-[(3-trifluoromethyl-phenylcarbamoyl)-methyl]-benzamide]",97
14,"O=C(CN(Cc1ccccc1Cl)C(=O)c1cc2ccccc2s1)Nc1cccc(F)c1 [Example 57, Benzo[b]thiophene-2-carboxylic acid (2-chloro-benzyl)-[(3-fluoro-phenylcarbamoyl)-methyl]-amide]",88
15,"O=C(CN(Cc1ccccc1Cl)C(=O)c1ccc(Cl)cc1)Nc1cccc(F)c1 [Example 59, 4-Chloro-N-(2-chloro-benzyl)-N-[(3-fluoro-phenylcarbamoyl)-methyl]-benzamide]",166
16,"O=C(CN(Cc1ccccc1Cl)C(=O)c1ccc(OC(F)(F)F)cc1)Nc1cccc(F)c1 [Example 60, N-(2-Chloro-benzyl)-N-[(3-fluoro-phenylcarbamoyl)-methyl]-4-trifluoromethoxy-benzamide]",107

row,SMILES,IC50 [nM]
1,"N#Cc1ccc(C(=O)N(CC(=O)Nc2cccc(F)c2)Cc2ccccc2Cl)cc1 [Example 62, N-(2-Chloro-benzyl)-4-cyano-N-[(3-fluoro-phenylcarbamoyl)-methyl]-benzamide]",357
2,"O=C(CN(Cc1cc(F)cc(F)c1)C(=O)c1cc2ccccc2s1)Nc1cccc(F)c1 [Example 63, Benzo[b]thiophene-2-carboxylic acid (3,5-difluoro-benzyl)-[(3-fluoro-phenylcarbamoyl)-methyl]-amide]",70
3,"O=C(CN(Cc1cc(F)cc(F)c1)C(=O)c1ccc(OC(F)(F)F)cc1)Nc1cccc(F)c1 [Example 65, N-(3,5-Difluoro-benzyl)-N-[(3-fluoro-phenylcarbamoyl)-methyl]-4-trifluoromethoxy-benzamide]",278
4,"O=C(CN(Cc1ccc(F)c(F)c1)C(=O)c1cc2ccccc2s1)Nc1cccc(F)c1 [Example 66, Benzo[b]thiophene-2-carboxylic acid (3,4-difluoro-benzyl)-[(3-fluoro-phenylcarbamoyl)-methyl]-amide]",167
5,"O=C(CN(Cc1c(F)cccc1F)C(=O)c1cc2ccccc2s1)Nc1ccc(F)c(Cl)c1 [Example 69, Benzo[b]thiophene-2-carboxylic acid [(3-chloro-4-fluoro-phenylcarbamoyl)-methyl]-(2,6-difluoro-benzyl)-amide]",90
6,"O=C(CN(Cc1c(F)cccc1F)C(=O)c1ccc(OC(F)(F)F)cc1)Nc1ccc(F)c(Cl)c1 [Example 71, N-[(3-Chloro-4-fluoro-phenylcarbamoyl)-methyl]-N-(2,6-difluoro-benzyl)-4-trifluoromethoxy-benzamide]",107
7,"O=C(CN(Cc1ccccc1Cl)C(=O)c1cc2ccccc2s1)Nc1ccc(F)c(Cl)c1 [Example 72, Benzo[b]thiophene-2-carboxylic acid (2-chloro-benzyl)-[(3-chloro-4-fluoro-phenylcarbamoyl)-methyl]-amide]",205
8,"O=C(CN(Cc1ccccc1Cl)C(=O)c1ccc(Cl)cc1)Nc1ccc(F)c(Cl)c1 [Example 74, 4-Chloro-N-(2-chloro-benzyl)-N-[(3-chloro-4-fluoro-phenylcarbamoyl)-methyl]-benzamide]",142
9,"O=C(CN(Cc1ccccc1Cl)C(=O)c1ccc(OC(F)(F)F)cc1)Nc1ccc(F)c(Cl)c1 [Example 75, N-(2-Chloro-benzyl)-N-[(3-chloro-4-fluoro-phenylcarbamoyl)-methyl]-4-trifluoromethoxy-benzamide]",259
10,"O=C(CN(Cc1ccccc1Cl)C(=O)c1ccc(F)cc1)Nc1ccc(F)c(Cl)c1 [Example 76, N-(2-Chloro-benzyl)-N-[(3-chloro-4-fluoro-phenylcarbamoyl)-methyl]-4-fluoro-benzamide]",159
11,"N#Cc1ccc(C(=O)N(CC(=O)Nc2ccc(F)c(Cl)c2)Cc2ccccc2Cl)cc1 [Example 77, N-(2-Chloro-benzyl)-N-[(3-chloro-4-fluoro-phenylcarbamoyl)-methyl]-4-cyano-benzamide]",182
12,"O=C(CN(Cc1c(F)cccc1F)C(=O)c1ccc(F)cc1)Nc1ccc(F)c(Cl)c1 [Example 78, N-[(3-Chloro-4-fluoro-phenylcarbamoyl)-methyl]-N-(2,6-difluoro-benzyl)-4-fluoro-benzamide]",282
13,"O=C(CN(Cc1cccc(F)c1F)C(=O)c1cc2ccccc2s1)Nc1ccc(F)c(Cl)c1 [Example 80, Benzo[b]thiophene-2-carboxylic acid [(3-chloro-4-fluoro-phenylcarbamoyl)-methyl]-(2,3-difluoro-benzyl)-amide]",66
14,"O=C(CN(Cc1cccc(F)c1F)C(=O)c1ccc(Cl)cc1)Nc1ccc(F)c(Cl)c1 [Example 82, 4-Chloro-N-[(3-chloro-4-fluoro-phenylcarbamoyl)-methyl]-N-(2,3-difluoro-benzyl)-benzamide]",108
15,"O=C(CN(Cc1cccc(F)c1F)C(=O)c1ccc(OC(F)(F)F)cc1)Nc1ccc(F)c(Cl)c1 [Example 83, N-[(3-Chloro-4-fluoro-phenylcarbamoyl)-methyl]-N-(2,3-difluoro-benzyl)-4-trifluoromethoxy-benzamide]",78
